Results on four compounds are retold here after article PMC9555310, “Novel inhibitors and activity-based probes targeting serine proteases” (Frontiers in Chemistry, 2022).

Experiment [1] addresses T1, plasmin (Homo sapiens, UniProt P00747).
T1 construct: purchased Sigma-Aldrich (supplement); R&D Systems; host or cells: human plasma
Kind of experiment: Irreversible inhibition kinetics of plasmin (fluorogenic substrate progress curves). The following applies: PBS pH 7.4, 37°C, mean ± SD (n=2). It is filed as biochemical. How it is done: A range of inhibitor concentrations were prepared from a 10 mM stock solution of the test compounds (NAP533, NAP559, NAP800, NAP830, NAP849, and NAP962) in N, N-dimethylformamide (DMF). Recombinant protease activities were assayed using the cognate fluorogenic substrates as follows: trypsin (Z-Gly-Gly-Arg-NHMec), thrombin (Boc-Val-Pro-Arg-NHMec), plasmin (Boc-Val-Leu-Lys-NHMec), human neutrophil elastase (MeO-Succinyl-Ala-Ala-Pro-Val-NHMec), and chymotrypsin (Succinyl-Ala-Ala-Pro-Phe-NHMec). Each substrate was used at a final concentration of 50 μM, in the appropriate buffer for each protease. All inhibition assays were performed in microtiter plates maintained at 37°C in a final volume of 100 μL. The reaction was initiated by the addition of each protease (approx. 0.01 μg/well) and the rate of substrate hydrolysis was recorded continuously at 37°C, over a 60 min period, by measuring the rate of increase in fluorescence (at λex 360 nm, λem 480 nm) using a FLUOstar Optima microplate reader (BMG Labtech).
The resultant inhibition progress curves obtained for each inhibitor were analyzed by the kinetic models developed by [Tian and Tsou (1982)] and [Walker and Elmore (1984)], for irreversible inhibitors, with curve fitting being achieved using GraFit (Erithacus Software), as described previously ([Ferguson et al., 2016]).
FIGURE 4 Progress curves for (A), chymotrypsin-catalysed hydrolysis of Succinyl-Ala-Ala-Pro-Phe-NHMec, in the presence of varying concentrations of NAP849. (B), NE-catalysed hydrolysis of MeO-succinyl-Ala-Ala-Pro-Val-NHMec, in the presence of varying concentrations of NAP800. (C) Trypsin-catalysed of Z-Gly-Gly-Arg-NHMec, in the presence of NAP830. (D) Plasmin-catalysed hydrolysis of Boc-Val-Leu-Lys-NHMec, in the presence of varying concentrations of NAP962. Assays were carried out in PBS, pH 7.4, at 37°C, in the presence of a range of inhibitor concentrations (0.25–50 μM) and a fixed concentration (50 μM) of the appropriate substrate for each protease.
The “product progress” curves for substrate hydrolysis in the presence of an inhibitor (Figure 4) are indicative of the action of irreversible inhibitors operating through the kinetic scheme illustrated in Figure 6. In this scheme, the formation of the reversible enzyme–inhibitor complex (EI) is zcharacterized by the inhibitor constant K i. This is converted into the covalent/irreversible complex (E-I) characterized by a first-order rate constant k 3. The overall second-order rate constant for the inactivation of E by I is given by the ratio k 3/K i ([Walker and Elmore, 1984]; [Tsou, 1988]).
Fluorogenic enzyme assays were carried out on a FLUOstar OPTIMA spectro-fluorimeter (BMG Labtech) with analysis performed on MARS Data Analysis Software (BMG Labtech). Black 96-well microtitre plates were supplied by Thermo Scientific. Trypsin from porcine pancreas, plasmin from human plasma and chymotrypsin from bovine pancreas were obtained from Sigma-Aldrich. Thrombin and Cathepsin B were supplied by R and D Systems. Human Neutrophil Elastase was supplied by Calbiochem. Fluorogenic substrates Z-Gly-Gly-Arg-NHMec, Succinyl-Ala-Ala-Pro-Phe-NHMec and MeO-Succinyl-Ala-Ala-Pro-Val-NHMec were supplied by Sigma-Aldrich. Boc-Val-Pro-Arg-NHMec was obtained from R and D Systems and Boc-Val-Leu-Lys-NHMec was supplied by PeptaNova. Phosphate Buffered Saline tablets were acquired from Sigma- Aldrich.
Protease inactivation by each of the compounds under study was evaluated using a fluorogenic enzyme assays. Protease-substrate combinations used as detailed in Section 2. Inhibitors were made up as 10 mM stock solutions in either DMF or DMSO, then diluted with PBS (pH 7.4) to give appropriate working concentrations. A final volume of 100 μL was used per well. Substrate (50 μM final concentration) was added to a black 96-well microtitre plate (Thermo Scientific), in duplicate, followed by addition of inhibitor, in such a manner to give the required final concentration. […]

The target in experiment [2] is T2, chymotrypsin (Bos taurus, UniProt P00766).
T2 construct: purchased Sigma-Aldrich (supplement); Calbiochem; host or cells: bovine pancreas
Description: Off-target study, residual activity after 2 min pre-incubation: chymotrypsin. It is filed as biochemical, bovine. The conditions noted are these: highest concentration (50 μM); 2 min incubation, PBS pH 7.4, 37°C. The method, then: (§1) FIGURE 5 Results of “off-target“ studies. NAP849 (A), NAP800 (B) and NAP830 (C) were tested against trypsin, chymotrypsin, and NE. Samples (approx. 0.01 μg) of each protease were incubated with the indicated concentrations of test compound for 2 min, in PBS, pH 7.4, at 37°C. (D) NAP858, NAP962 and NAP849 were tested against cathepsin B at the indicated concentrations in 0.1 M MES, pH 6.1, containing 1 mM EDTA, for 2 min, at 37°C. Aliquots (approx. 10 μL) of each incubation sample were then added to a fresh sample (990 μL) of PBS for the serine proteases and MES for cathepsin B, containing the appropriate substrate for each protease, to measure their residual activity. Controls incubations were performed in the absence of test compound, but in the presence of an appropriate volume of DMF vehicle used to prepare stock solutions of each inhibitor under study.
(§2) Two elements were investigated regarding possible “off-target” effects–determining the extent of cross-reactivity of each of the new putative ABPs between the various serine protease family members and assessing their collateral inhibitory action against another mechanistic class–the cysteine proteases, using cathepsin B (CTSB) as an exemplar.
(§3) For assays requiring a pre-incubation step enzyme and inhibitor in assay buffer were incubated together, at 37 °C, for 2 min, with gentle agitation. The reaction mixture was then aliquoted (50 μL) in duplicate on a black 96-well microtitre plate followed by addition of substrate to make a final concentration of 50 μM in a total volume of 100 μL. The fluorescence production was then measured as described for the previous procedure.
(§4) Figure ST1. Results of “off-target” studies. NAP559 and NAP533 were tested against chymotrypsin, and NE. Samples (approx. 0.01 mg) of each protease were incubated with the indicated concentrations of test compound for 2 min, in PBS, pH 7.4, at 37 °C. Aliquots (approx. 10 µL) of each incubation sample were then added to a fresh sample (990 µL) of PBS containing the appropriate substrate for each protease, to measure their residual activity. Controls incubations were performed in the absence of test compound, but in the presence of an appropriate volume of DMF vehicle used to prepare stock solutions of each inhibitor under study.

The target of experiment [3] is T3, neutrophil elastase (NE) (Homo sapiens, UniProt P08246).
T3 construct: purchased Calbiochem
T3 sequence (P08246 30-267): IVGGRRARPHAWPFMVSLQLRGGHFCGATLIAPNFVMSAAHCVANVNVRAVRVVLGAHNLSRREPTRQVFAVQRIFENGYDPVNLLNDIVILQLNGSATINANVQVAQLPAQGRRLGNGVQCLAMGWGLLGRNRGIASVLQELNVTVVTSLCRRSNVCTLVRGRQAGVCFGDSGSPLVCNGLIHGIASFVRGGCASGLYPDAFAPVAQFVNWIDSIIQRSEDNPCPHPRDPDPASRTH
Description: Off-target study, residual activity after 2 min pre-incubation: NE. It is filed as biochemical. The following applies: highest concentration (50 μM); 2 min incubation, PBS pH 7.4, 37°C. How it is done:
as §1, §2, §3, §4

Experiment [4] addresses T2, chymotrypsin. Details: method as in Gilmore et al. (2009). The conditions noted are these: ref Gilmore et al. (2009); cited from earlier work.
Experiment [5] concerns the target T4, trypsin (Sus scrofa, UniProt P00761).
T4 construct: purchased Sigma-Aldrich; host or cells: porcine pancreas
The following applies: cited from earlier work.

The target of experiment [6] is T5, thrombin (Homo sapiens, UniProt P00734).
T5 construct: apparent molecular mass of 31 kDa, corresponding to the heavy (catalytic) chain of the protease; purchased R&D Systems
Kind of experiment: Activity-based profiling of thrombin (SDS-PAGE, streptavidin-HRP western blot). It is filed as binding. The following applies: 30 min, 37°C; heavy (catalytic) chain; recapitulated in Figure 8B. The method, then:
Samples of recombinant protease (trypsin, plasmin, thrombin, chymotrypsin, or HNE, as indicated in the relevant figure legends) were treated with each of the newly synthesized compounds at a concentration of 50 μM, for 30 min, at 37°C. A control sample (no ABP) was prepared by treating the recombinant protease with solvent vehicle (DMF) only, used to prepare the stock solution of each ABP. Samples were also pre-treated (±90°C for 30 min) before being incubated with each putative ABP. With trypsin and thrombin, further samples were prepared where Z-Arg^P-(OPh)2 or NAP559, respectively, was added 30 min prior to the addition of the ABP under examination. All treated samples were then denatured with SDS containing reducing treatment buffer (10 min at 95°C), followed by resolution by SDS-PAGE and subjected to Western blotting. Resolved proteins were then transferred onto the nitrocellulose membrane and labeled with streptavidin-HRP. The ABP–protease complex was then visualized following treatment with Luminata Forte HRP substrate.
FIGURE 8 Activity Based Profiling of Trypsin-like serine proteases. (A) trypsin was treated (±) with NAP830, for 30 min, at 37°C (± pretreatment with Z-Arg^P-(OPh)2). (B) thrombin (1 […]) was pre-treated with various concentrations of NAP559 (30 min, at 37°C) followed by treatment (±) with NAP858 for 30 min, at 37°C. (C) Plasmin was treated in turn with QUBTL1, NAP962 and NAP830, (± pre-heat inactivation at 95°C, for 10 min) for 30 min, at 37°C. […]
Following transfer, the extra protein binding sites on the membrane were blocked by addition of 3% (w/v) BSA in TBST (20 mM Tris, 137 mM NaCl, 1% (v/v) Tween 20, pH 7.6) and agitated gently at room temperature for 30 minutes. The biotin-labelled proteases were then detected by addition of Streptavidin-HRP (Vector Laboratories) in 3% (w/v) BSA in TBST at a concentration of 1:20000, for 1 hour at room temperature. […]

Experiment [7] addresses T6, cathepsin B (CTSB) (Homo sapiens, UniProt P07858).
T6 construct: purchased R and D Systems
Description: Off-target study, residual activity after 2 min pre-incubation: cathepsin B. It is filed as biochemical. The conditions noted are these: 25 and 50 μM, 0.1 M MES pH 6.1, 1 mM EDTA, 37°C. The method, then:
as §1, §2, §3
Assays with Cathepsin B required a pre-activation step of the protease prior to use in the fluorogenic enzyme assays. Cathepsin B was diluted to 10 μg/ml in activation buffer (0.1 M MES, pH 6.1, containing 1 mM EDTA and 2 mM DTT) and left to stand at room temperature for 15 minutes. Activated Cathepsin B was then diluted (1:50 to give 10 ng/50 μl) with assay buffer (activation buffer minus the DTT) prior to use as described previously.

Values joined by “and” are separate entries in the source; they are usually repeats but may differ in a detail not shown here. Equal values may be shown once. Read-outs that look alike come from different tables or passages of the source.

T4 sequence (P00761 9-231): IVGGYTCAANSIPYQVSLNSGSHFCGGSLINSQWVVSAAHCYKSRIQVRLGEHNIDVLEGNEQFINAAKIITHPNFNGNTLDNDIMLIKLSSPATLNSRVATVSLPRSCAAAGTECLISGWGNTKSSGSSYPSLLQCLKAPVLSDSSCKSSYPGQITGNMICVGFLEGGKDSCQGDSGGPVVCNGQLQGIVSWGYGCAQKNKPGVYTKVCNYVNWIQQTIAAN
T1 sequence (P00747 581-810 limits assumed): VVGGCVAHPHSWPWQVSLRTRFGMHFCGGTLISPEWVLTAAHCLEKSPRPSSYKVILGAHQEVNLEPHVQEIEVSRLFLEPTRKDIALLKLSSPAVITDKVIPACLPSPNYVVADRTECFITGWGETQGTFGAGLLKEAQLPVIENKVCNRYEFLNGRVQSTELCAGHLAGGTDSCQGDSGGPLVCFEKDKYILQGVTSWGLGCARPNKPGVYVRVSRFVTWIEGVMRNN
T1 sequence (P00747 97-580 partner limits assumed): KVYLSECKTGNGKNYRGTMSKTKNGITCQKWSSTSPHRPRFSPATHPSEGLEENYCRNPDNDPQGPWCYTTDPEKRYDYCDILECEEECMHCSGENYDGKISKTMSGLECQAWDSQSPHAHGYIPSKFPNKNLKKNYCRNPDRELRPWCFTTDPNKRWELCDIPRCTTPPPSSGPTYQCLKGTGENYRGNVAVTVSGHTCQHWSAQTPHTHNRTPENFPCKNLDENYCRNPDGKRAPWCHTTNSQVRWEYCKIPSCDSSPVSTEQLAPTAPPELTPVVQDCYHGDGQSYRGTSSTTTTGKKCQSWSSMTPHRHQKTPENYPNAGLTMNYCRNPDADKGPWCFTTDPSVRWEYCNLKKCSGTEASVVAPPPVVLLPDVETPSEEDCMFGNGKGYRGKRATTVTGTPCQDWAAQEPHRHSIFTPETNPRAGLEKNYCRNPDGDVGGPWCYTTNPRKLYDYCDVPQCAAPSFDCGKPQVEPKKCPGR

For the compound `CC(C)[C@H](NC(=O)CN(Cc1ccccc1)C(=O)CN(CCCCN)C(=O)ON1C(=O)CCC1=O)C(N)=O` [NAP533, Succinimidoyl-CO-NLys-NPhe-Val-NH2], in experiment [1] (Boc-Val-Leu-Lys-NHMec 50 μM), the Ki was found to be 2200 nM. Further, in experiment [1] (first-order rate constant), the “k 3” value is 0.4 (± 0.04) min^−1. Besides, the “k 3 / K i” value in experiment [1] (second-order rate constant of inactivation) is given as 1.7 (± 0.3) × 10^5 M^−1 min^−1. Also, the inhibition of chymotrypsin in experiment [2] is listed as < 5 % of control. In experiment [3], the “inhibition of NE” value is < 5 % of control.

As to `O=C(CCCCC1SCC2NC(=O)NC21)NCCCOCCOCCOCCCNC(=O)CCC(=O)NC(Cc1ccccc1)P(=O)(Oc1ccccc1)Oc1ccccc1` (stereo not shown) [QUBCL1, biotin-PEG-succinyl-Phe^P-(OPh)2], in experiment [4], the Ki is 1080 nM, the “k 3” value was 0.119 min⁻¹ and the “k 3 / K i” value was 1850 M⁻¹ s⁻¹.

Turning to `N=C(N)NCCCN(CC(=O)NCC(=O)NCC(=O)NCCCOCCOCCOCCCNC(=O)CCCCC1SCC2NC(=O)NC21)C(=O)ON1C(=O)CCC1=O` (stereo not shown) [NAP858], in experiment [5] (ref Ferguson et al. (2022)), the “k 3” value is 0.5 (+ 0.1) min^−1; the “k 3 / K i” value was 34300 M⁻¹ s⁻¹ and 35000 M⁻¹ s⁻¹. In addition, in experiment [6], the “labelling of thrombin by ABP (western blot)” value is given as “detection of a band with an apparent molecular mass of 31 kDa”. The “inhibitory activity against CTSB” value in experiment [7] is listed as “none of the three carbamates tested exhibited any inhibitory activity against CTSB”.

For the compound “Biotin-PEG-Succinyl-Lys^P-(OPh)2 [QUBTL2]”, the “k 3 / K i” value in experiment [5] (ref Martin and Walker (2017)) was 18300 M⁻¹ s⁻¹.
